Results taken from patent publication US20240246960A1 (adMare Therapeutics Society, priority 2021, published 2024).
Read-outs that look alike come from different tables or passages of the source.

Tests used:
[1] = Microsomal stability assay, mouse liver microsomes; conditions: for microsomal CLint at 0.1 uM: male, CD-1, mouse, liver microsomes, pH 7.4, Microsomal Stability Mouse Clint, 0.1 mg/mL microsomes, 0.1 uM compound
[2] = target: T1, DNA-PK (Homo sapiens, UniProt P78527); test: DNA-PK Assay for Biochemical Enzymatic Inhibition (ADP Glo Kinase assay); conditions: Table 1
T1 construct: purchased Invitrogen PR9107A
Procedure, shortened: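 Human DNA-PK (25 ng) preincubated 15 min with compounds (ten three-fold dilutions) in HEPES pH 7.5, MgCl2, KCl, calf thymus DNA buffer, then substrate 434.4 μM and ATP 64.4 μM (final) for 60 min at room temperature. ADP-Glo luminescence; percent inhibition fitted by four-parameter regression for IC50.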

[3] = target: T2, DNA-PK phosphorylation at Serine 2056 (Homo sapiens, UniProt P78527); test: Cellular Assay for Inhibition of DNA-PK Phosphorylation at Serine 2056 (FaDu cells, neocarzinostatin, sandwich ELISA); format: cell-based; conditions: Table 1
T2 construct: host or cells: FaDu
Procedure, shortened: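 Readout was pSer2056 and total DNA-PK, measured by sandwich ELISA on protein-normalized lysates. Prior to lysis, compound was applied to FaDu cells for 1 h (0.3% DMSO), followed by 2 h of 1 μg/mL neocarzinostatin. IC50 values were fitted from log concentration versus % inhibition normalized to DMSO and NCS controls.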

[4] = target: T3, pDNA-PK ser2056 induction in HCT116 spheroids (Homo sapiens, UniProt P78527); test: Multicellular tumour spheroid + radiation, pDNA-PK inhibition, HCT116; format: cell-based; conditions: 20 Gy
T3 construct: endogenous in cells; host or cells: HCT116 multicellular tumour spheroids
Procedure, shortened: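 EC50 (μM) is concentration halving radiation-induced pDNA-PK ser2056, scored by fluorescent immunostaining of cryosections 2 h after 20 Gy. HCT116 tumour spheroids (~0.5 mm, stirred, 20% O2/5% CO2, 37 °C) exposed to serial dilutions from 10 or 5 μM to 3.5 nM starting 1 h before irradiation.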

[5] = Example 7, spheroid, cell line HCT115 [sic], 20% O2, read-out: EC50 (pDNA-PK inhibition, immunohistochemical endpoint)
[6] = Example 8, spheroid, read-out: Cell line: HCT116 Immunohistochemical endpoint pDNA-PK inhibition EC50
[7] = Example 9 Study 2, 20% O2, read-out: Spheroid Cell line: HCT116 Immunohistochemical endpoint pDNA-PK inhibition EC50

| Structure (SMILES) | Microsomal Stability (mouse) % rem. 60 min [1] | microsomal CLint at 0.1 uM [1] [µL/min/mg] | IC50 [2] [nM] | IC50 [3] [nM] | EC50 [4, 5] [nM] | EC50 [4, 6] [nM] | EC50 [4, 7] [nM] |
| --- | --- | --- | --- | --- | --- | --- | --- |
| O=C(N[C@H]1CC[C@@H](Oc2nc(N3CCOCC3)cc3ncccc23)CC1)N1CCOCC1 [Compound 14, N-((1s,4s)-4-((7-morpholino-1,6-naphthyridin-5-yl)oxy)cyclohexyl)morpholine-4-carboxamide] | G (% remaining = 50-75%) | < 116 | 1 to 10 | 100 to 1000 | 1000 to 10000 | 1000 to 10000 | 1000 to 10000 |
| FC(F)(F)c1cnn([C@H]2CC[C@@H](Oc3nc(N4CCOCC4)cc4ncccc34)CC2)c1 [Compound 17b, 4-(5-(((1s,4s)-4-(4-(trifluoromethyl)-1H-pyrazol-1-yl)cyclohexyl)oxy)-1,6-naphthyridin-7-yl)morpholine] | E (% remaining = 0-25%) | > 116 | 10 to 150 |  |  |  |  |
| Cc1nn([C@H]2CC[C@@H](Oc3nc(N4CCOCC4)cc4ncccc34)CC2)cc1C(F)(F)F [Compound 17g, 4-(5-(((1s,4s)-4-(3-methyl-4-(trifluoromethyl)-1H-pyrazol-1-yl)cyclohexyl)oxy)-1,6-naphthyridin-7-yl)morpholine] | E (% remaining = 0-25%) | > 116 | 1 to 10 | 1000 to 10000 |  |  |  |
| c1cnc2cc(N3CCOCC3)nc(O[C@H]3CC[C@@H](n4ncnn4)CC3)c2c1 [Compound 17m, 4-(5-(((1s,4s)-4-(2H-tetrazol-2-yl)cyclohexyl)oxy)-1,6-naphthyridin-7-yl)morpholine] | E (% remaining = 0-25%) | > 116 | 1 to 10 | 100 to 1000 | 1000 to 10000 | 1000 to 10000 | 1000 to 10000 |
| Brc1cnc2cc(N3CCOCC3)nc(O[C@H]3CC[C@@H](Nc4ncccn4)CC3)c2c1 [Compound 18a, N-((1s,4s)-4-((3-Bromo-7-morpholino-1,6-naphthyridin-5-yl)oxy)cyclohexyl)pyrimidin-2-amine] | E (% remaining = 0-25%) | > 116 | 1 to 10 | 100 to 1000 | 1000 to 10000 | 1000 to 10000 | 1000 to 10000 |
| COc1cnc(N[C@H]2CC[C@@H](Oc3nc(N4CCOCC4)cc4ncccc34)CC2)nc1 [Compound 20c, 5-Methoxy-N-((1s,4s)-4-((7-morpholino-1,6-naphthyridin-5-yl)oxy)cyclohexyl)pyrimidin-2-amine] | E (% remaining = 0-25%) | > 116 | 1 to 10 | < 100 | 500 to 1000 | 500 to 1000 | 500 to 1000 |
| c1cnc(N[C@H]2CC[C@H](Oc3nc(N4CCOCC4)cc4ncccc34)CC2)nc1 [Compound 24, N-((1r,4r)-4-((7-morpholino-1,6-naphthyridin-5-yl)oxy)cyclohexyl)pyrimidin-2-amine] | F (% remaining = 25-50%) | > 116 | 10 to 150 |  |  |  |  |
| O=C(N[C@H]1CC[C@@H](Oc2nc(N3CCOCC3)cc3ncccc23)CC1)C1CC1 [Compound 108, N-((1s,4s)-4-((7-Morpholino-1,6-naphthyridin-5-yl)oxy)cyclohexyl)cyclopropanecarboxamide] | E (% remaining = 0-25%) | > 116 | 1 to 10 | 100 to 1000 | 1000 to 10000 | 1000 to 10000 | 1000 to 10000 |
| O=C(N[C@H]1CC[C@@H](Oc2nc(N3CCOCC3)cc3ncccc23)CC1)C1(O)CC1 [Compound 109, 1-Hydroxy-N-((1s,4s)-4-((7-morpholino-1,6-naphthyridin-5-yl)oxy)cyclohexyl)cyclopropane-1-carboxamide] | E (% remaining = 0-25%) | > 116 | 1 to 10 | 100 to 1000 | 10000 to 100000 | 10000 to 100000 | 10000 to 100000 |
| O=C(N[C@H]1CC[C@@H](Oc2nc(N3CCOCC3)cc3ncccc23)CC1)c1cc[nH]n1 [Compound 138, N-((1s,4s)-4-((7-morpholino-1,6-naphthyridin-5-yl)oxy)cyclohexyl)-1H-pyrazole-3-carboxamide] | E (% remaining = 0-25%) | > 116 | 0.5 to 1 | 100 to 1000 | 500 to 1000 |  | 500 to 1000 |
| O=C(N[C@H]1CC[C@@H](Oc2nc(N3CCOCC3)cc3ncccc23)CC1)c1scnc1Cl [Compound 139, 4-chloro-N-((1s,4s)-4-((7-morpholino-1,6-naphthyridin-5-yl)oxy)cyclohexyl)thiazole-5-carboxamide] | G (% remaining = 50-75%) | < 116 | 1 to 10 | 100 to 1000 | 10000 to 100000 |  | 10000 to 100000 |

Continued, values first:

| Microsomal Stability (mouse) % rem. 60 min [1] | microsomal CLint at 0.1 uM [1] [µL/min/mg] | IC50 [2] [nM] | IC50 [3] [nM] | EC50 [4, 5] [nM] | EC50 [4, 6] [nM] | EC50 [4, 7] [nM] | Structure (SMILES) |
| --- | --- | --- | --- | --- | --- | --- | --- |
| E (% remaining = 0-25%) | > 116 | 0.5 to 1 | 100 to 1000 | 1000 to 10000 | 1000 to 10000 | 1000 to 10000 | c1cncc(N[C@H]2CC[C@@H](Oc3nc(N4CCOCC4)cc4ncccc34)CC2)c1 [Compound 26, N-((1s,4s)-4-((7-morpholino-1,6-naphthyridin-5-yl)oxy)cyclohexyl)pyridin-3-amine] |
| E (% remaining = 0-25%) | > 116 | < 0.5 | < 100 | 500 to 1000 |  | 500 to 1000 | c1cnnc(N[C@H]2CC[C@@H](Oc3nc(N4CCOCC4)cc4ncccc34)CC2)c1 [Compound 29, N-((1s,4s)-4-((7-morpholino-1,6-naphthyridin-5-yl)oxy)cyclohexyl)pyridazin-3-amine] |
| E (% remaining = 0-25%) | > 116 | 0.5 to 1 | 100 to 1000 | 1000 to 10000 |  | 1000 to 10000 | O=C(N[C@H]1CC[C@@H](Oc2nc(N3CCOCC3)cc3ncccc23)CC1)c1ccccn1 [Compound 114, N-((1s,4s)-4-((7-morpholino-1,6-naphthyridin-5-yl)oxy)cyclohexyl)picolinamide] |
| F (% remaining = 25-50%) | > 116 | 0.5 to 1 | 100 to 1000 | 1000 to 10000 |  | 1000 to 10000 | O=C(N[C@H]1CC[C@@H](Oc2nc(N3CCOCC3)cc3ncccc23)CC1)c1ccc(Cl)nc1 [Compound 116, 6-chloro-N-((1s,4s)-4-((7-morpholino-1,6-naphthyridin-5-yl)oxy)cyclohexyl)nicotinamide] |
| E (% remaining = 0-25%) | > 116 | 0.5 to 1 | 100 to 1000 | 1000 to 10000 |  | 1000 to 10000 | O=C(N[C@H]1CC[C@@H](Oc2nc(N3CCOCC3)cc3ncccc23)CC1)c1cnccn1 [Compound 119, N-((1s,4s)-4-((7-morpholino-1,6-naphthyridin-5-yl)oxy)cyclohexyl)pyrazine-2-carboxamide] |
| F (% remaining = 25-50%) | > 116 | 0.5 to 1 | 100 to 1000 | 1000 to 10000 |  | 1000 to 10000 | O=C(N[C@H]1CC[C@@H](Oc2nc(N3CCOCC3)cc3ncccc23)CC1)c1ncc(Cl)cn1 [Compound 124, 5-chloro-N-((1s,4s)-4-((7-morpholino-1,6-naphthyridin-5-yl)oxy)cyclohexyl)pyrimidine-2-carboxamide] |
| F (% remaining = 25-50%) | > 116 | 0.5 to 1 | 100 to 1000 | 1000 to 10000 |  | 1000 to 10000 | Cc1ccnc(C(=O)N[C@H]2CC[C@@H](Oc3nc(N4CCOCC4)cc4ncccc34)CC2)n1 [Compound 127] |
| F (% remaining = 25-50%) | > 116 | 0.5 to 1 | 100 to 1000 | 1000 to 10000 |  | 1000 to 10000 | Cc1cnc(C(=O)N[C@H]2CC[C@@H](Oc3nc(N4CCOCC4)cc4ncccc34)CC2)nc1 [Compound 128, 5-methyl-N-((1s,4s)-4-((7-morpholino-1,6-naphthyridin-5-yl)oxy)cyclohexyl)pyrimidine-2-carboxamide] |
| E (% remaining = 0-25%) | > 116 | 0.5 to 1 | 100 to 1000 | 1000 to 10000 |  | 1000 to 10000 | O=C(N[C@H]1CC[C@@H](Oc2nc(N3CCOCC3)cc3ncccc23)CC1)n1cccn1 [Compound 136, N-((1s,4s)-4-((7-morpholino-1,6-naphthyridin-5-yl)oxy)cyclohexyl)-1H-pyrazole-1-carboxamide] |
